Data set [1] has as its system HT29. The following applies: historical, read-out: IC50* (Historical IC50 observed for paclitaxel); cited from earlier work.
Data set [2] has as its system MDA-MB-231. The note with it: historical, read-out: IC50* (Historical IC50 observed for paclitaxel); cited from earlier work.
Data set [3] relates to NCI-H292. The note with it: historical, read-out: IC50* (Historical IC50 observed for paclitaxel); cited from earlier work.
Data set [4] has as its system HT1080. The following applies: historical, read-out: IC50* (Historical IC50 observed for paclitaxel); cited from earlier work.
Data set [5] relates to SNU-16. The note with it: historical, read-out: IC50* (Historical IC50 observed for paclitaxel); cited from earlier work.
The test system of data set [6] is HCC1806. The note with it: historical, read-out: IC50* (Historical IC50 observed for paclitaxel); cited from earlier work.
Data set [7] deals with PC-3. The note with it: historical, read-out: IC50* (Historical IC50 observed for paclitaxel); cited from earlier work.
Data set [8] concerns HCT15. The following applies: historical, read-out: IC50* (Historical IC50 observed for paclitaxel); cited from earlier work.
The subject of data set [9] is NCI-H1975. The following applies: historical, read-out: IC50* (Historical IC50 observed for paclitaxel); cited from earlier work.
In data set [10] the test system is PC-3. Description: cells. The following applies: Homo sapiens, PC-3, 72 h. The text has this:
(§1) Details of the initial cell plating procedure are described in Table 3.
(§2) Data Details for Tables 5 and 6. Inhibition %=(Max−Sample value)/(Max−Min)*100.
(§3) The IC50 curves were generated by 4 Parameter Logistic Model—Sigmoidal Dose-Response Model as follows: Y=Bottom+(Top−Bottom)/(1+10^((log EC50-X)*HillSlope)).

In data set [11] the test system is SNU-16. Kind of data set: cells. The following applies: Homo sapiens, SNU-16, 72 h.
Description: as §1, §2, §3

Data set [12] deals with HT1080. Description: cells. The following applies: Homo sapiens, HT-1080, 72 h.
Description: as §1, §2, §3

Data set [13] concerns NCI-H292. Kind of data set: cells. The note with it: Homo sapiens, NCI-H292, 72 h.
Description: as §1, §2, §3

For data set [14], the system named is MDA-MB-231. Description: cells. The note with it: Homo sapiens, MDA-MB-231, 72 h.
Description: as §1, §2, §3

Data set [15] deals with MOLP-8. Description: cells. The following applies: Homo sapiens, MOLP-8, 72 h.
Description: as §1, §2, §3

Data set [16] deals with NCI-H1975. Description: cells. The following applies: Homo sapiens, NCI-H1975, 72 h.
Description: as §1, §2, §3

Data set [17] relates to HCC1806. Kind of data set: cells. The note with it: Homo sapiens, HCC1806, 72 h.
Description: as §1, §2, §3

For data set [18], the system named is EBC-1. Kind of data set: cells. The following applies: Homo sapiens, EBC-1, 72 h.
Description: as §1, §2, §3

Data set [19] has as its system HT29. Description: cells. The note with it: Homo sapiens, HT-29, 72 h.
Description: as §1, §2, §3

Data set [20] has as its system HCT15. Description: cells. The following applies: Homo sapiens, HCT-15, 72 h.
Description: as §1, §2, §3

Data set [21] concerns 11 tumor cell lines. Description: 11 cancer cell line panel cytotoxicity, statements on the whole panel.
Description: as §1, §2, §3

Data set [22] concerns EBC-1. The note with it: historical, read-out: IC50* (Historical IC50 observed for paclitaxel); cited from earlier work.
Data set [23] has as its system MOLP-8. The following applies: historical, read-out: IC50* (Historical IC50 observed for paclitaxel); cited from earlier work.

Like-named read-outs stand apart in the source and are kept apart here.

Broadly, the IC50 is the midpoint of a concentration-inhibition curve. For `CC(=O)O[C@H]1C(=O)[C@@]2(C)[C@H]([C@H](OC(=O)c3ccccc3)[C@]3(O)C[C@H](OC(=O)[C@H](O)[C@@H](NC(=O)c4ccccc4)c4ccccc4)C(C)=C1C3(C)C)[C@]1(OC(C)=O)CO[C@@H]1C[C@@H]2O` [Paclitaxel], the IC50 in data set [1] was 2 nM; in data set [2], 9 nM; in data set [3] it was 2 nM; in data set [4], 1 nM; in [5], 2 nM; in [6] it was 2 nM. Moreover, the IC50 is 12 nM in data set [7]; 128 nM in data set [8]; 5 nM in data set [9]; 9.2 nM in data set [10]; 2.5 nM in [11]; 6.6 nM in [12]. Moreover, the IC50 in data set [13] came to 2.9 nM; in [14] it was 4.8 nM; in [15], 6.9 nM; in [16], 7.2 nM; in [17], 2.7 nM; in data set [18] it was 4.1 nM. Further, the IC50 is 4.1 nM in data set [19], 112 nM in [20], 4 nM in [22] and 4 nM in [23]. Besides, the “cytotoxic activity over the cell line panel (in words)” value in data set [21] is “worked well on all the tested cell lines”.

The record behind these values is patent US10624968B2, “Compounds for treating cancer” (Bicycle Therapeutics Limited, priority 2017, dated 2020).
